From ChEMBL document CHEMBL3880399 (2004)
Active and inactive are the calls of the source. No cut-off for these calls is given here.

Experiments:
[1] = tested on: Mus musculus; assay: Reduction in d-amphetamine-induced hyperactivity in sc dosed mouse; type: functional
[2] = tested on: Rattus norvegicus; assay: Antipsychotic activity in rat assessed as reduction in MK-801-induced locomotor behaviors at 1 mg/kg, ip; type: functional, organism-based
[3] = tested on: Homo sapiens; assay: Potentiation of levadopa-induced improvements in parkinsonian symptoms in parkinsonian patient administered orally once daily for four weeks with dose escalating once each week (30 mg on week2, 70 mg on week3, 150 mg on week 4 and 300 mg on week 5) in placebo controlled study lasting for 5 weeks measured on first day of each dose escalation; type: functional

Row | SMILES | Activity [1] | Activity [2] | EC50 [3] [nM]
1 | O=C(CCCN1CCC(O)(c2ccc(Cl)cc2)CC1)c1ccc(F)cc1 | Dose-dependent effect |  | 
2 | CN1CCN(C2=Nc3cc(Cl)ccc3Nc3ccccc32)CC1 [CLOZAPINE] |  | Active | 6.4
